The values below come from patent US10736973B2, “Glucose analogs for diagnosis states” (TECHNOLOGY INNOVATION MOMENTUM FUND (ISRAEL) LIMITED …, priority 2014, dated 2020).

For series [1] the following is noted: rat, in vivo; cited from earlier work.
For series [2] the following is noted: in vivo; cited from earlier work.
The test system of a further series is DA3 tumors. As to the kind of experiment: CEST NMR of MCW extracts of tumors from treated mice. The format is in vivo, BALB/C mice. As to conditions: 25 min after 1.5 g/kg; compared with D-glu; B1=2.5 μT, pH=7.0, T=25° C., 11.7 T. As to the method:
(§1) • Chemicals and Media: 3OMG, D-glucose, D-glucose 6 phosphate, 2-DG and 2-DG-6P sodium salt were obtained from Sigma-Aldrich, Israel; FDG was obtained from Carbosynth Limited, UK. The glucose analogs were prepared at concentration of 10 mM (pH=7.5), containing 10% D2O for NMR field locking. • Cells: DA3-D1-DMBA-3 is a cell line derived from a poorly differentiated mammary adenocarcinoma induced in BALB/C mice by dimethylbenzanthracene. • Animals: BALB/C female mice were purchased and kept in the breeding facility of the Sackler School of Medicine, Tel Aviv University. To induce orthotropic tumors in mice, DA3 cells were injected into the lower left mammary gland of 8 week old (17-22 gr) female BALB/c mice (5×10^5 cells in 100 μL saline). […] Each sample was dissolved in 0.5 ml D2O (99.98%, Biolab, Israel), adjusted at pH=6.5-7 and inserted into 5 mm tube for NMR. • NMR Spectroscopy: 1H NMR Spectra were recorded at 500 MHz in 5 mm tubes on a Bruker 500 MHz DRX with the following parameters: spectral width 7500 Hz, pulse width 5.5 us (corresponding to a 45° flip angle); data size 16 K; relaxation delay 10 s; number of scans=16. […] The chemical exchange contrast was measured by magnetization transfer asymmetry, MTRasym. […]

For the next series, the system named is DA3 mammary tumors. The series is described as follows: In vivo CEST MRI of DA3 mammary tumor bearing mice. Also on record: species or system BALB/c mice. As to the method: CEST MRI experiments were performed on a Bruker 7T Biospec scanner with 30 cm bore size on implanted xenograph mammary tumors of mice before and following the injection of the glucose analog 3OMG. DA3 tumor bearing mice that were allowed to grow for 10-14 days, with an average tumor volume of 5 mm^3 were scanned. The mice were anesthetized using isoflurane (1-2%) and scanned with surface coil. Their temperature was monitored and maintained at 37° C. We performed i.p injections of the contrast medium, 3OMG (in saline, pH=7.4).
Images were generated as follows: a series of gradient-echo images were collected from a single 1 mm axial slice of (acquisition matrix 128×64, field of view of 40×40 mm2) after 1.2 s presaturation pulse of 2.5 μT (106 Hz) at ±1.2 ppm from the water signal. For the MTRasym plot, the mean intensities were used within the selected region of interest (ROI) within the tumor.
Having determined in vitro that 3OMG concentrations of only a few millimolar could be detected with CEST method (FIGS. 1-4), the determination of the potential use of 3OMG CEST MRI to image mammary tumors, in vivo, was carried out. Thus performed 3OMG CEST MRI experiments were carried out on mice bearing DA3 tumors injected with 3OMG glucose analog. Tumor anatomy was initially imaged using T2 weighted spin echo sequence (RARE).

Another series has as its system hexokinase. As to conditions: cited from earlier work.
A short description of series [3]: CEST NMR of 10 mM glucose analog solutions (MTRasym). The following applies: pH 6.3-7.8 tested, 1.2 ppm, T=25° C., 11.7 T. The format is physicochemical. On the procedure:
as §1

`O=C[C@H](F)[C@@H](O)[C@H](O)[C@H](O)CO` [FDG, 2-fluoro-deoxy-D-glucose]: the Toxicity entry in series [1] is “toxic at high concentrations”.
Take `CO[C@@H]([C@H](O)[C@H](O)CO)[C@@H](O)C=O` [3OMG, 3-O-methylglucose]: in series [2], the Excretion entry is “entirely excreted by the kidneys”. In the series with DA3 tumors, the “CEST effect for the peak at 1.2 ppm in combined tumor extracts” value is “significantly high”. Moreover, the “CEST enhancement (% CEST increase) in the tumor” value in the series on DA3 mammary tumors (i.p. injection 1.5 g/kg, 7T, ±1.2 ppm, 2.5 μT) was “about 20%”. In addition, in the series with DA3 mammary tumors (injection 1.5 g/kg), the “Time after which the enhanced tumor CEST MRI image started to decay” value is greater than 20 min. Further, the “CEST effect in other organs (apart from the urinary bladder)” value with DA3 mammary tumors (injection 1.5 g/kg, throughout the MRI scans session) is recorded as “did not show any significant CEST effect”. Besides, in the series with hexokinase, the Phosphorylation entry is “does not undergo phosphorylation” and the Substrate for hexokinase entry was “does not serve as substrate”. In addition, in series [3], the “pH at which the CEST effect has its maximum” value is recorded as roughly 7.5.
For `O=CC[C@@H](O)[C@H](O)[C@H](O)CO` [2-DG, 2-deoxy-D-glucose], in series [1], the Toxic high concentration is 3 g/kg and the Toxicity result is listed as “toxic at high concentrations”.
